This note sets out measurements from patent US20230346969A1, “INTERMEDIATE FOR PREPARING ANTIBODY-DRUG CONJUGATE (ADC), PREPARATION METHOD THEREFOR, AND USE THEREOF” (priority 2020, published 2023).

Read-outs that look alike come from different tables or passages of the source. Where a SMILES comes first, the peptide text is derived from it. [ ]: non-standard residue; d: D form. The star is where a group is joined. Dolaproine = CO[C@@H]([C@@H]1CCCN1)[C@@H](C)C(=O)O; Dil = CC[C@H](C)[C@H](NC)[C@@H](CC(=O)O)OC; X1 = C[C@@H](N*)[C@@H](O)c1ccccc1; NMeV = CN[C@H](C(=O)O)C(C)C

By IC50 is commonly meant the concentration needed to halve the response being measured.

One series concerns SKBR3 cells. Description: Endocytosis and intracellular localization of ADC by confocal microscopy. Type of series: cell-based. Conditions: 5 µg/mL, 37° C., 45 or 90 min. On the procedure: SKBR3 cells were incubated with 5 µg/mL of hRS7-VK-PTX or hRS7-VK-SN38 in a 24-well plate (1 × 10^4 cells/well) in a 5% CO2, 37° C. incubator for 45 or 90 min. Cells were washed once with PBS, fixed and permeabilized. After washing, cells were stained with 488 goat anti-human IgG (H&L) or 555 anti-rabbit IgG F(ab′)2 fragment. Nuclear DNA was stained with 4′,6-dimidyl-2-phenylindole (DAPI). Immunofluorescence was recorded with an Olympus BK71 confocal microscope.
SKBR3 cells were incubated with ADC molecules at 37° C. for 45 or 90 min. Unbound ADC was removed by washing cells in a culture medium, then the cells were fixed and permeabilized. The marker proteins LAMP-1, GM130 and clathrin were detected with their respective antibodies and a secondary antibody conjugated to Alex®555 (red). Anti-Trop-2 ADC was detected with DyLight®488-conjugated secondary antibody (green). DAPI was used to stain nuclear DNA (blue).

A further series has as its system NCIH2452. Description: Cell viability assay (CCK-8). It is filed as cell-based. The note with it: ADCs; CCK-8, 96 hours; cell 'HOC2401' [sic], Lung; read-out: IC50 (95% Cl). As for the experimental part:
(§1) Cell viability was determined using Cell Counting Kit 8 (CCK-8). Cells were seeded into 96-well plates at 3000-10000 cells/well. After incubation overnight, drugs were added at different concentrations. Plates were incubated in a 5% CO2, 37° C. humidified chamber for 96 hours. CCK8 reagent was added thereto and the plates were placed back to the incubator until the absorbance at 450 nm of untreated control cells was greater than 1.0. Growth inhibition was measured as the percent growth relative to untreated cells. Dose response curve was generated from the mean values of two or three tests, and IC50 values were calculated using Prism GraphPad software.
(§2) The anti-tumor efficacy of different payloads on different tumor cell lines was detected by CCK-8, and the results are shown in FIG. 5.

The subject of a further series is COLO205. As to the kind of experiment: Cell viability assay (CCK-8). It is filed as cell-based. Conditions: CCK-8, 96 hours, read-out: IC50 (95% Cl). On the procedure: as §1, §2
Another series has as its system MDA-MB-231. As to the kind of experiment: Cell viability assay (CCK-8). Type of series: cell-based. The note with it: CCK-8, 96 hours, Mamary, read-out: IC50 (95% Cl). As for the experimental part:
as §1, §2

The next series deals with SCLC-21H. Description: Cell viability assay (CCK-8). It is filed as cell-based. Conditions: CCK-8, 96 hours, read-out: IC50 (95% Cl). As for the experimental part: as §1, §2
The test system of another series is HT29. Description: Cell viability assay (CCK-8). It is filed as cell-based. The note with it: CCK-8, 96 hours, Colon, read-out: IC50 (95% Cl). As for the experimental part:
as §1, §2

In a further series the test system is BXPC-3. Description: Cell viability assay (CCK-8). Type of series: cell-based. The note with it: CCK-8, 96 hours, Pancreas, read-out: IC50 (95% Cl). As for the experimental part: as §1, §2
Another series relates to SK-MES-1. Description: Cell viability assay (CCK-8). Type of series: cell-based. Conditions: CCK-8, 96 hours, Lung, read-out: IC50 (95% Cl). On the procedure:
as §1, §2

The subject of a further series is SKBR3. Description: Cell viability assay (CCK-8). It is filed as cell-based. Conditions: CCK-8, 96 hours, read-out: IC50 (95% Cl). As for the experimental part:
as §1, §2

A further series has as its system Capan-1. Description: Cell viability assay (CCK-8). Type of series: cell-based. The note with it: CCK-8, 96 hours, Pancreas, read-out: IC50 (95% Cl). On the procedure:
as §1, §2

The next series concerns NCI-H1688. Description: Cell viability assay (CCK-8). It is filed as cell-based. The note with it: CCK-8, 96 hours, Lung, read-out: IC50 (95% Cl). As for the experimental part: as §1, §2
The test system of a further series is MDA-MB-468. Description: Cell viability assay (CCK-8). It is filed as cell-based. The note with it: CCK-8, 96 hours, read-out: IC50 (95% Cl). On the procedure:
as §1, §2

Another series concerns HCC1806. Description: Cell viability assay (CCK-8). Conditions: CCK-8, 96 hours, Mamary, read-out: IC50 (95% Cl). It is filed as cell-based. On the procedure: as §1, §2
For a further series, the system named is CFPAC-1. As to the kind of experiment: Cell viability assay (CCK-8). Type of series: cell-based. Conditions: CCK-8, 96 hours, read-out: IC50 (95% Cl). As for the experimental part: as §1, §2
Series [1] in a line: Adverse effects and weight loss of mice treated in the efficacy models. It is filed as in vivo, BALB/c nu/nu mice. The source says:
Five-week-old female athymic BALB/c nu/nu mice were purchased from Charles River Company (Shanghai, China), and mice were randomly divided into 5-6 mice/group. Animal handling and procedures were approved and performed in accordance with the requirements of the Institutional Animal Care and Use Committee (IACUC) of Shanghai Institute of Materia Medica, Chinese Academy of Sciences. All models were inoculated subcutaneously on the side of mice. BXPC-3, HCC1806 and NCIH1688 cells were established by injecting and homogenizing 5 × 10^6 cells in Matrigel matrix. COLO205 cells were established by injecting and suspending 1 × 10^7 cells in Matrigel matrix. After the tumor volume reached about 200 mm^3, the tumor-bearing mice were randomly divided into treatment groups and a control group according to the tumor volume. Each drug was administered intraperitoneally. Mice were injected at doses of 3 or 10 mg/kg (10 mL/kg). Tumor volume was defined as length × ½ × width × width. The percentage of inhibition was calculated by the following formula: (1-average tumor volume of the treatment group/average tumor volume of the control group)×100%. Toxicity of the different treatment groups was assessed by monitoring weight loss.

For series [2], the system named is tumor cell lines with different expression levels of Trop-2. Description: Cell viability assay (CCK-8), comparison across the cell panel. Type of series: cell-based. Conditions: tumor cell lines with different expression levels of Trop-2. As for the experimental part: as §1, §2
The mark [3] stands for this setting: free payloads, cell 'CCAO205' [sic], Colen.
Where [4] appears, read: free payloads, 'MCP-83-21' [sic].
The mark [5] stands for this setting: free payloads, cell 'ECLC 214' [sic], Small cell lung.
[6] abbreviates: free payloads, cell 'H123' [sic].
Setting [7] is: free payloads, cell 'BKFC-Y' [sic].
The mark [8] stands for this setting: free payloads, cell 'SK-M55-1' [sic].
Where [9] appears, read: free payloads, cell 'SK8RS' [sic], Mamary.
Setting [10] is: free payloads, cell 'Cepes-3' [sic].
Setting [11] is: free payloads, cell 'NCl-H1828' [sic].
[12] abbreviates: free payloads, cell printed 'MOA-413-468', Mamary.
The mark [13] stands for this setting: free payloads, cell CFPAC-1, Pancreas.

Regarding hRS7-VK-SN38, in the series on SKBR3 cells, the “internalization and intracellular localization” value is reported as “did not undergo significant internalization”. The IC50 in the series on NCIH2452 amounted to 10.3 nM; in the series on COLO205 (ADCs, cell printed 'COXC28', Colon), 16.8 nM; in the series with MDA-MB-231 (ADCs, cell 'SRM-K9-231' [sic]) it was 3.03 nM; with SCLC-21H (ADCs, SRM-C-21H), 16.3 nM; in the series with HT29 (ADCs, cell '3128' [sic]), 5.59 nM; in the series on BXPC-3 (ADCs, cell RMCA [sic]), 1.53 nM. For the same compound, the IC50 was 80.5 nM in the series with SK-MES-1 (ADCs, cell 'SK-WSS-7' [sic]); 1.45 nM in the series with SKBR3 (ADCs, 'SKERS' [sic], Mammary); 12.4 nM in the series on Capan-1 (ADCs, Cxoo-1 [sic]); above 300 nM in the series with NCI-H1688 (ADCs, cell 'HCl-11685' [sic]); 1.37 nM in the series on MDA-MB-468 (ADCs, SRM-M9-409, Mammary); 0.879 nM in the series with HCC1806 (ADCs, 'HOC1906' [sic]). In the series with CFPAC-1 (ADCs, cell CPAC-1 [sic], Pancreas), the IC50 was 3.14 nM. Besides, the “adverse effects or weight loss in treated mice, relative to hRS7-VK-PTX (none)” value in [1] (mouse, in vivo) is given as “stark contrast”.

As for `CCc1c2c(nc3ccc(O)cc13)-c1cc3c(c(=O)n1C2)COC(=O)[C@]3(O)CC` [SN38], the IC50 with COLO205 (setting [3]) was 33.4 nM; in the series with MDA-MB-231 (setting [4]), 103 nM; with SCLC-21H (setting [5]) it was 2.14 nM; with HT29 (setting [6]), above 305 nM; in the series with BXPC-3 (setting [7]), 20.8 nM; in the series on SK-MES-1 (setting [8]) it was 5.5 nM. The IC50 is 2.14 nM with SKBR3 (setting [9]); 5.61 nM in the series on Capan-1 (setting [10]); around 4.9 nM in the series with NCI-H1688 (setting [11]); 3.72 nM with MDA-MB-468 (setting [12]); 0.412 nM in the series with HCC1806 (free payloads, 'HCCHOI' [sic]); around 0.281 nM with CFPAC-1 (setting [13]).

As for `CC[C@H](C)[C@@H]([C@@H](CC(=O)N1CCC[C@H]1[C@H](OC)[C@@H](C)C(=O)N[C@H](C)[C@@H](O)c1ccccc1)OC)N(C)C(=O)[C@@H](NC(=O)[C@@H](NC)C(C)C)C(C)C` [MMAE] (H-[NMeV]V[Dil][Dolaproine]-X1), the IC50 is 0.155 nM in the series with COLO205 (setting [3]); above 300 nM in the series with MDA-MB-231 (setting [4]); 0.0131 nM with SCLC-21H (setting [5]); around 3.05 nM in the series on HT29 (setting [6]); 0.263 nM with BXPC-3 (setting [7]); 0.225 nM with SK-MES-1 (setting [8]). Moreover, the IC50 with SKBR3 (setting [9]) is 0.0327 nM; with Capan-1 (setting [10]), 0.366 nM; in the series with NCI-H1688 (setting [11]), 1.74 nM; in the series on MDA-MB-468 (setting [12]), around 0.141 nM; in the series with HCC1806 (free payloads, 'HCCHOI' [sic]), 0.0177 nM; in the series on CFPAC-1 (setting [13]), above 300 nM.

For `CC(=O)O[C@H]1C(=O)[C@@]2(C)[C@H]([C@H](OC(=O)c3ccccc3)[C@]3(O)C[C@H](OC(=O)[C@H](O)[C@@H](NC(=O)c4ccccc4)c4ccccc4)C(C)=C1C3(C)C)[C@]1(OC(C)=O)CO[C@@H]1C[C@@H]2O` [PTX, Paclitaxel], the “cytotoxicity of individual payload molecules” value in series [2] was “weaker than that of MMAE, but close to that of SN38”. The IC50 in the series with COLO205 (Homo sapiens, COLO 205, free payloads, cell 'CCAO205' [sic], Colen) was above 300 nM; in the series on MDA-MB-231 (Homo sapiens, MDA-MB-231, free payloads, 'MCP-83-21' [sic]), above 300 nM; in the series on SCLC-21H (Homo sapiens, SCLC-21H, free payloads, cell 'ECLC 214' [sic], Small cell lung), around 32 nM; in the series on HT29 (Homo sapiens, HT-29, free payloads, cell 'H123' [sic]) it was above 300 nM; in the series with BXPC-3 (Homo sapiens, BXPC-3, free payloads, cell 'BKFC-Y' [sic]) it was 0.468 nM; with SK-MES-1 (Homo sapiens, SK-MES-1, free payloads, cell 'SK-M55-1' [sic]), 53.1 nM. Moreover, the concentration for half-maximal inhibition (IC50) in the series on SKBR3 (Homo sapiens, SK-BR-3, free payloads, cell 'SK8RS' [sic], Mamary) is around 852 nM; with Capan-1 (Homo sapiens, CAPAN-1, free payloads, cell 'Cepes-3' [sic]) it was 7.43 nM; with NCI-H1688 (NCI-H1688, free payloads, cell 'NCl-H1828' [sic]), 37.3 nM; in the series on MDA-MB-468 (Homo sapiens, MDA-MB-468, free payloads, cell printed 'MOA-413-468', Mamary), 7.22 nM; in the series on HCC1806 (Homo sapiens, HCC1806, free payloads, 'HCCHOI' [sic]) it was 2.46 nM; with CFPAC-1 (Homo sapiens, free payloads, cell CFPAC-1, Pancreas), above 300 nM. Besides, the “adverse effects or weight loss in treated mice, relative to hRS7-VK-PTX (none)” value in [1] (hRS7-VK-MMAE 3 mg/kg, hRS7-VK-SN38 3 or 10 mg/kg, PTX alone) is “stark contrast”.
